The results in this text go back to patent US20220339135A1, “COMPOSITIONS AND METHODS FOR MODULATING AN INFLAMMATORY RESPONSE” (Enzychem Lifesciences Corporation, priority 2019, published 2022).

Experiment [1] relates to MIP-2 and IFN-β in LPS treated macrophage cells. The experiment is described as follows: MIP-2 and IFN-β in LPS treated macrophage cells. Type of experiment: cell-based.
Experiment [2] relates to chemo-radiation and PAK induced oral mucositis. Briefly: Chemo-radiation and PAK induced oral mucositis. Type of experiment: in vivo, mice. The settings on record: PLAG 250 mg/kg oral daily, n=19. On the procedure:
To induce immunocompromised condition in mice of CRIN group and EC-18 group, mice were administered by intraperitoneal injection with 30 mg/kg of 5-FU (Sigma) once a day for 3 days (Sigma) and five days after the experiment initiated, 1Gy of γ-radiation at once. For the EC-18 group, EC-18 (Enzychem Lifesciences, Daejeon, Republic of Korea) was orally given at a dose of 250 mg/kg once a day during the study period. The experimental schedule is described in FIG. 1. On day 6 after the experiment initiated, all the mice of 2 groups (CRIN group, and EC-18 group) were anesthetized with 2% 2, 2, 2,-tribromoethanol by intraperitoneal injection and infected with P. aeruginosa K (PAK) by syringe in the tongue. 1 day after PAK injection, the condition of the tongue and survival rate of mice were monitored and recorded.
P. aeruginosa K was cultured in LB broth or on LB agar plates overnight at 37° C. until they were in log-phase growth. […] The bacterial pellet was suspended to the appropriated number of colony-forming unit (CFU) per milliliter in PBS, as determined by optical density and plating out a serial dilution on broth agar plates. […]
Chemoradiotherapy induced immunocompromised mice were challenged with PAK. […] After the challenge, mice were monitored for 1 day, and the survival rate of mice was recorded.

Experiment [3] has as its system P2Y6 receptor on THP-1 cells. Briefly: MSU-induced P2Y6 receptor trafficking. Type of experiment: cell-based, human. The method, then: THP-1 cells were divided into two groups: 1) MSU treated group and 2) MSU/PLAG treated group. For MSU treated group, THP-1 cells were stimulated with monosodium urate (MSU) crystal (400 μg/ml) for 0, 10, 20, 30, 40, 50, 60 minutes. For MSU/PLAG treated group, THP-1 cells were pre-incubated with PLAG (100 μg/ml) for an hour and then stimulated with monosodium urate (MSU) crystal (400 μg/ml) for 0, 10, 20, 30, 40, 50, 60 minutes. Then, cells were harvested. (A) To detect for the P2Y6 receptor on the membrane surface, cells were fixed with 4% paraformaldehyde (Sigma-Aldrich) and incubated with PBS containing 1% BSA for blocking. They were labeled with the rabbit anti-P2Y6 receptor antibody (1:200, APR-011, Alomone Labs, Jerusalem, Israel) for 1 h. The detection Ab was used with Alexa Flour 488 goat anti-rabbit IgG (Invitrogen). (B) To detect lysosomal activity, THP-1 cells were stained with Texas red conjugated-LYSO-ID® Lysosomal Detection Kit (Enzo Life Sciences, Inc.). Finally, cells were washed with 1% FBS/PBS and mounted with DAPI-containing fluorescence microscopy mounting medium (Invitrogen). Confocal samples were analyzed with a laser scanning confocal microscope (Carl Zeiss, Oberkochen, Germany). For flow cytometric analysis, cells were washed and analyzed with a FACSVerse flow cytometer (BD Biosciences). FlowJo software (Tree Star, OR, USA) was used data processing.
The specific siRNA of CD36 (sc-29995) and control siRNA (sc-37007) were purchased from Santa Cruz Biotechnology. Cells were transfected with 50 nM of either the targeting or control siRNA using HiPerFect Transfection Reagent (Qiagen, Hilden, Germany) for 24 h. The knockdown efficiency of siRNAs was confirmed by Western blot analysis.
THP-1 cells were pre-incubated with PLAG (100 μg/ml) for 1 hour and then stimulated with MSU crystal (400 μg/ml). After 15, 30, 60 min, cells were harvested. […] For flow cytometric analysis, cells were washed with 1% FBS/PBS and analyzed with a FACSVerse flow cytometer (BD Biosciences). […]

Experiment [4] has as its system Rac1, p47phox in BMDMs and THP-1 cells. The experiment is described as follows: Rac1 membrane translocation and p47phox phosphorylation. Type of experiment: cell-based. On the procedure: Total cells were lysed on ice for 30 minutes in RIPA buffer composed of 50 mM Tris-HCl (pH 7.4), 150 mM NaCl, 2 mM EDTA, 1% NP-40, 0.5% sodium deoxycholate, 0.1% SDS, 1 mM phenylmethylsulfonyl fluoride (PMSF), 10 mM sodium fluoride, 2 mM sodium pyrophosphate, 10 mM β-glycerophosphate, 10 mM sodium orthovanadate. Membrane-and-cytoplasmic protein fractions of cultured cells were obtained with Mem-PER Plus Membrane Protein Extraction Kit (Thermo Scientific, MA, USA) according to the manufacturer's instructions. The lysates were centrifuged at 13,000 rpm for 20 minutes at 4° C. and protein concentrations were determined using the Bradford assay (Bio-Rad Laboratories). Denatured samples were mixed with a 5×SDS-PAGE loading buffer and heated to 100° C. for 15 min. The samples were separated on the 10% of SDS-PAGE gel and transferred to polyvinylidene difluoride (PVDF) membranes (Merck Millipore Corporation, MA, USA). Membranes were blocked with 5% non-fat milk in PBS (10 mM Tris-HCl, pH7.5, 150 mM NaCl) for 1 h and probed with primary antibodies against ERK1/2, phospho-ERK1/2, P38, phospho-P38, SAPK/JNK, phospho-SAPK/JNK, Na, K-ATPase, α-Tubulin, and β-actin from Cell Signaling Technology (MA, USA), Rac1 from Merck Millipore Corporation), p47phox and phospho-p47phox from Invitrogen, adenosine receptor A1 from Abcam, β arrestin-1 from Santa Cruz Technology for overnight at 4° C. […]

For the molecule `CCCCC/C=C\C/C=C\CCCCCCCC(=O)OC(COC(C)=O)COC(=O)CCCCCCCCCCCCCCC` (racemic) [PLAG, 1-palmitoyl-2-linoleoyl-3-acetylglycerol], the “modulation of chemokine MIP-2 in silenced cell” value in experiment [1] (LPL or GPIHBP1 silenced cell) is reported as “not capable of modulating”. Further, the “chemokine MIP-2 and cytokine IFN-β” value in experiment [1] (LPS treated macrophage cells) is “effectively down-regulates”. The “survival rate after 7 days” value in experiment [2] was found to be 84%. In experiment [3] (MSU/PLAG treated cells), the P2Y6 endocytosis initiates entry is on record as “about 10 minutes” and the “P2Y6 returned to the surface” value is listed as “about 30 minutes”. Also, the “promotion of P2Y6 receptor endocytosis (flow cytometry)” value in experiment [3] (control and CD36 silenced cells) was “still observed”. In experiment [4] (dose-dependent), the “gemcitabine-induced p47phox phosphorylation” value was “effectively inhibited”. For the same molecule, in experiment [4] (gemcitabine-stimulated THP-1 cells), the “translocation of Rac1 from the cytosol to the membrane” value is recorded as “significantly inhibited”.
